Assay [1] is described as follows: Luminescence Cell-Based Dose Response HTS to Identify Inhibitors of 5'UTR Stem-Loop Driven Prion Protein mRNA Translation in H4 Neuroglioblastoma Cells. [Related pubchem assays: 1827 (Project Summary), 1813 (Primary HTS)]. The class given is functional.
Assay [2] in a line: HEK-293T cell viability reduction – luminescence, B-cell screen hits, cytotoxicity control for BCR NF-kB inhibitor project, dose response (AID 489021).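 Note: HEK-293T cells carrying an NF-kB luciferase reporter; cells exposed to compound for about 14 hours before viability readout.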 The class given is functional, cell-based.
Assay [3] can be described thus: luciferase reporter signal suppression in cells – H4 neuroglioma cells, luminescence, dose response (AID 1990). The class given is functional, cell-based. (In general: A reporter such as luciferase makes a cellular process visible.)
The nature of assay [4]: alpha-synuclein stem-loop luciferase translation blockers – H4 neuroglioma cells, luminescence, confirmation (AID 1988). The class given is functional, cell-based.
Assay [5] is described as follows: Trypanosoma cruzi growth suppression in host cells – NIH3T3 host cells, beta-gal luminescence, confirmation (AID 2044).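 Note: intracellular parasites grown in NIH/3T3 mouse fibroblasts as host cells; luminescent beta-galactosidase reporter signal from transgenic T. cruzi replicating inside host cells; inhibitors lower the luminescence signal.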 The format is functional, cell-based.
In assay [6] the target is T1, Short transient receptor potential channel 4 (Mus musculus, UniProt Q9QUQ5).
T1 sequence (Q9QUQ5 whole entry): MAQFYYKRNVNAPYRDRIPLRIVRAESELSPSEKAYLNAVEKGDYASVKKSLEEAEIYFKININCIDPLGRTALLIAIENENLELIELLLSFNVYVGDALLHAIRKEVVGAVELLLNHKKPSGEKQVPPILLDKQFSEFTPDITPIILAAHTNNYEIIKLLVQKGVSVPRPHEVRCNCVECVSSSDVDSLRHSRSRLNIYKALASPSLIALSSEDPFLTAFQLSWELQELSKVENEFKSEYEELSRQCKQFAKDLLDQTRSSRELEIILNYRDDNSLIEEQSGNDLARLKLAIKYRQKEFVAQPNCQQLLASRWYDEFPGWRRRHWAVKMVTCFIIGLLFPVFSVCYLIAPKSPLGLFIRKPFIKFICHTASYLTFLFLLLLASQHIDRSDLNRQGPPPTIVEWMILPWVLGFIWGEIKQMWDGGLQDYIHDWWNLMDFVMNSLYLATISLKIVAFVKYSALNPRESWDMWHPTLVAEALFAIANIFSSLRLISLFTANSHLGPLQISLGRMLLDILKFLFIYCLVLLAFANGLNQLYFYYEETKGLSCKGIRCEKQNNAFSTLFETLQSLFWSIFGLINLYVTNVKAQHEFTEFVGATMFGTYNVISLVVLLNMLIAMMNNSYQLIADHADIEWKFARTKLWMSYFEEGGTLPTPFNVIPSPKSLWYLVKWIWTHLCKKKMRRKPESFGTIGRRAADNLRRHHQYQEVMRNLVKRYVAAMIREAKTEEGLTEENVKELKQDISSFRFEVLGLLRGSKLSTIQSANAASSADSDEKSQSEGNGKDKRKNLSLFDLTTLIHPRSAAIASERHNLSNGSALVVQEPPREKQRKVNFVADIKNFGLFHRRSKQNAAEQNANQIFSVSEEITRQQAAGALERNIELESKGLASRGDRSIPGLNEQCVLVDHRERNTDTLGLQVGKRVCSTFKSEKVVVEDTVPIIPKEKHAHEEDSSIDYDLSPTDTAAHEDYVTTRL
Briefly: block of DAMGO-driven TRPC4 calcium entry – cell-based, HEK293 TRPC4/mu-opioid, Fluo-4 calcium, dose response (AID 434942).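 Note: potency of inhibitors blocking the TRPC4 calcium response.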 The format is functional.

Assay [7] is described as follows: NIH3T3 cell viability loss – ATP luminescence, mouse fibroblasts, counter-screen, dose response (AID 2010).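 Note: cells exposed to compound for about 90 hours before reading.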 The class given is functional, cell-based. For orientation: Counterscreens check selectivity or assay interference.
The target in assay [8] is T2, Heat shock factor protein 1 (Mus musculus, UniProt P38532).
T2 sequence (P38532 whole entry): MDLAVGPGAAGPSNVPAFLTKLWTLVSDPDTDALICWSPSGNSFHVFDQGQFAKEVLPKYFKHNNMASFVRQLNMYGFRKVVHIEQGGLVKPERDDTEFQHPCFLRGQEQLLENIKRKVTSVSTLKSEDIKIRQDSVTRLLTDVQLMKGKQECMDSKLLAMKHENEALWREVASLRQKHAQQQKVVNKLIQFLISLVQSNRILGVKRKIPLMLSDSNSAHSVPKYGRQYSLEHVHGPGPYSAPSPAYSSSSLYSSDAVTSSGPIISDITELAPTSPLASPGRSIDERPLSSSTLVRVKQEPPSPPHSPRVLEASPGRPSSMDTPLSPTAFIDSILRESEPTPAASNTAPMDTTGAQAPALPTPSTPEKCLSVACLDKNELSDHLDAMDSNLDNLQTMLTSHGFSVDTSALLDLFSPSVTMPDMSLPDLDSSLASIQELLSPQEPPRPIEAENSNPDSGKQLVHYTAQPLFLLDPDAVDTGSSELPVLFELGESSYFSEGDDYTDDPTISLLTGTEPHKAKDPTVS
Briefly: decrease of HSF1-responsive luciferase luminescence – cell-based, NIH3T3, dose retest, confirmation (AID 2382).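 Note: NIH3T3 fibroblasts with HSF1-driven luciferase reporter stressed by proteasome inhibitor MG132; luminescence from HSF1-driven luciferase expression after 8 hours of MG132 stress.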 The class given is functional.

For assay [9], the target named is T3, Zinc finger protein mex-5 (Caenorhabditis elegans, UniProt Q9XUB2).
T3 sequence (Q9XUB2 whole entry): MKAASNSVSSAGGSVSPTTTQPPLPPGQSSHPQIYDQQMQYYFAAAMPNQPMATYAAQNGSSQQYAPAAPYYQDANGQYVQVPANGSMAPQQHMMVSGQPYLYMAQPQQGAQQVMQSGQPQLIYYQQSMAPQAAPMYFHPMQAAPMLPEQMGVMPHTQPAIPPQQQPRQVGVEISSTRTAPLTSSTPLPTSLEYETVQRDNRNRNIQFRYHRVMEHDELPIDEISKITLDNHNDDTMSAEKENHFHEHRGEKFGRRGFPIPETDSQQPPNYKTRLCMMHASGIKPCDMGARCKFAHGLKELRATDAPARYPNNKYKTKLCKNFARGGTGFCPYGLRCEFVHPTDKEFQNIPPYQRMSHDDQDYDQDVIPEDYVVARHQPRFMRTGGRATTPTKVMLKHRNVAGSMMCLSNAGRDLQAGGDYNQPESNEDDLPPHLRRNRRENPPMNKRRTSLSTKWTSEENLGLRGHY
In words: potency of MEX-5 RNA-binding blockers – biochemical, C. elegans, fluorescence polarization, dose response (AID 1960). On the technique in general: In fluorescence polarisation assays a small probe gives low polarisation when free and higher when bound to something large.

The target of assay [10] is T4, Aminopeptidase N (Plasmodium falciparum FcB1/Columbia, UniProt O96935).
T4 sequence (O96935 whole entry): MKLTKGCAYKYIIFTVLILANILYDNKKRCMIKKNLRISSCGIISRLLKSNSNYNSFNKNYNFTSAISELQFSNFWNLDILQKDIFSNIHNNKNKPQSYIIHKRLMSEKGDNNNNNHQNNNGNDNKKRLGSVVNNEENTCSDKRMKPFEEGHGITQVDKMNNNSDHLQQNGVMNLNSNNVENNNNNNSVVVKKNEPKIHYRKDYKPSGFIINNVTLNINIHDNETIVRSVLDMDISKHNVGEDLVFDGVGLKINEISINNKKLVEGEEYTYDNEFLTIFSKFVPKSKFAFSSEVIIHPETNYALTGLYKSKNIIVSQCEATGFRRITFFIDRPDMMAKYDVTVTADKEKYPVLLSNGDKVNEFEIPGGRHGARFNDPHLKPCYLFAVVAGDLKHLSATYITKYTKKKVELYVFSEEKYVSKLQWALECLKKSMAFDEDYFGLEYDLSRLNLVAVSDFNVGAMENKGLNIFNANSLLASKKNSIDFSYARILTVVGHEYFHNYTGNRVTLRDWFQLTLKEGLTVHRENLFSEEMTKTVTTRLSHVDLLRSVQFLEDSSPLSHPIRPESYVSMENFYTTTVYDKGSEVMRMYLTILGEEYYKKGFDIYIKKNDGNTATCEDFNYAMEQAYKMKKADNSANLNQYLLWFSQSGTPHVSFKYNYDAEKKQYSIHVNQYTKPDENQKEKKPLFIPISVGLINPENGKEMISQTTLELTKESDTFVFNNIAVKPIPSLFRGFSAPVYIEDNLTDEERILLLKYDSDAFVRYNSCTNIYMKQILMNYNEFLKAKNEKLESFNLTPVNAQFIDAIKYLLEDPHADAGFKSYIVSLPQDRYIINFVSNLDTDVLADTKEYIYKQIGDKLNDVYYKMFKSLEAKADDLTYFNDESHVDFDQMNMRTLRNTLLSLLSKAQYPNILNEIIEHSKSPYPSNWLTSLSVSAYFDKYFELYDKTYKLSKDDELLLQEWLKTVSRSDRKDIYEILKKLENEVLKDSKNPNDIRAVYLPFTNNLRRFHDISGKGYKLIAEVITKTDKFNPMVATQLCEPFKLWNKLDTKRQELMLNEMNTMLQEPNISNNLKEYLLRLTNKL
In words: malaria alanyl aminopeptidase activity blockers – biochemical, fluorogenic H-Leu-NHMec substrate, 1536-well (AID 1445). Details: species or system Plasmodium falciparum 3D7, 3D7.

Assay [11] deals with T5, RNA-binding protein pos-1 (Caenorhabditis elegans, UniProt G5EF15).
T5 sequence (G5EF15 whole entry): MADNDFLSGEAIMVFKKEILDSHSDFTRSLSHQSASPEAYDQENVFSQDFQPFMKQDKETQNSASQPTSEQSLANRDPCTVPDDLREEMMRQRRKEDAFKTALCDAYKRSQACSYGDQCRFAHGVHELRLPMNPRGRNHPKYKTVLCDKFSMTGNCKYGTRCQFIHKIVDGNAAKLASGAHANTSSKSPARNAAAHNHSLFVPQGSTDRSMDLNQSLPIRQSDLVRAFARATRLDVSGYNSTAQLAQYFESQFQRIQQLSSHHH
In words: disruptors of C. elegans POS-1 RNA interaction – biochemical, fluorescence polarization, dose response (AID 1964).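 Note: purified POS-1 fused to maltose binding protein made in E. coli; potency of compounds blocking POS-1 binding to fluorescent RNA.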

The target in assay [12] is T6, Ubiquitin-conjugating enzyme E2 N (Homo sapiens, UniProt P61088).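 Note: Dose-response confirmation in a TR-FRET assay detecting UBC13-driven polyubiquitin chain formation, inhibition measured.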
T6 sequence (P61088 whole entry): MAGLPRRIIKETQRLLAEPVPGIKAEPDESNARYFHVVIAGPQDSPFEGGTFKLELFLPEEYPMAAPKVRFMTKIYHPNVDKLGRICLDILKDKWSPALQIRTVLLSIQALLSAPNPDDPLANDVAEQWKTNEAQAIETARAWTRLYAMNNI
The class given is functional.

The nature of assay [13]: NIH-3T3 fibroblast cytotoxicity, dose response, cytotoxicity control, cell-based, fluorescence, Alamar Blue, secondary assay (AID 2327).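 Note: NIH-3T3 mouse fibroblasts cultured with fluconazole at 8 µg/mL.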 The format is functional.
The target of assay [14] is T7, Calpain-2 catalytic subunit (Sus scrofa, UniProt P43367).
T7 sequence (P43367 whole entry): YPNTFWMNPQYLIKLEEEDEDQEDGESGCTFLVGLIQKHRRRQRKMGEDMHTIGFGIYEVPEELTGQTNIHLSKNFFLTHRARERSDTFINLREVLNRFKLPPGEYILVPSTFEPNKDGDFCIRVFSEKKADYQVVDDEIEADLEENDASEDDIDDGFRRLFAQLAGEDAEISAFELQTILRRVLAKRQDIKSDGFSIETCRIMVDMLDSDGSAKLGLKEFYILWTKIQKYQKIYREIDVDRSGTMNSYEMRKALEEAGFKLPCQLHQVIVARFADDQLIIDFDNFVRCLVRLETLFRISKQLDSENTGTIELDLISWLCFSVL
In words: m-calpain protease blockers, concentration series – biochemical, fluorogenic peptide substrate, dose response (AID 1420). The class given is functional.

Assay [15] concerns the target T2, Heat shock factor protein 1. Briefly: enhancement of HSF1-driven luciferase signal – cell-based, NIH3T3, luminescence, dose retest, confirmation (AID 435004).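 Note: stress induced by proteasome inhibitor MG132 added 30 min after compound; luciferase reporter driven by HSF1 response element in NIH3T3 cells; actives raise luminescence as potentiators of the MG132 stress response.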 The format is functional.

The source made the active and inactive calls.

EC50 and IC50 data for 13 compounds are collected here from ChEMBL document CHEMBL1201862, “PubChem BioAssay data set” (2004).

For orientation: EC50 means the midpoint of the concentration-response curve. As usually defined, the IC50 is the midpoint of a concentration-inhibition curve. Turning to `Cc1cccc(C(=O)Nc2ccc(CC(=O)O)cc2)c1`, the concentration for a half-maximal effect (EC50) in [1] was 16.9 µM (active); in assay [3] it was 12.9 µM (active); in assay [4], 28.5 µM (active). Also, the IC50 in [2] is > 80 µM (inactive).
For `NC(=O)C1CCN(C(=O)COc2ccc3ccccc3c2Br)CC1`, the IC50 in assay [2] was > 80 µM (inactive).
Take `Cc1cccc2cc(CN(CCCN(C)C)C(S)=NCCc3ccccc3)c(O)nc12`: the results for the EC50 in assay [5], in assay [6] and in assay [7] were 0.69 µM (active), 4.22 µM (active) and > 30 µM (not active), respectively.
On to `O=C(CCCc1nc(-c2ccccc2Cl)no1)NC1CCCC1`, for which the concentration for a half-maximal effect (EC50) in assay [1] is 5.93 µM (active); in assay [8] it was > 195 µM (not active); in [3], 0.822 µM (active); in [4], 0.606 µM (active). Further, in assay [2], the IC50 was > 80 µM (inactive).
As to `C#Cc1ccc(CN2CCCC(C(=O)Nc3ccccc3Oc3cccnc3)C2)cc1` (stereo not drawn), the concentration for a half-maximal effect (EC50) in assay [6] was 1.68 µM (active).
Consider `O=C(COC(=O)c1c(Cl)cccc1Cl)Nc1ccccc1Br`, for which the half-maximal effective concentration (EC50) in assay [6] was 1.33 µM (active).
The same measure, in the same setting: the same measure for `COc1ncnc2sc3c(c12)CCCC3`: 5.96 µM (active).
As for `CN1C(=O)S/C(=C/c2cccn2-c2cccc(C(=O)O)c2)C1=O`, the half-maximal effective concentration (EC50) in [9] and in [11] was > 300 µM (not active) each time. Moreover, the IC50 in assay [10] is 84.3 µM (active).
`O=C(CCCN1C(=O)/C(=C/c2ccccc2Cl)SC1=S)NNC(=O)c1ccc(Cl)cc1`: the results for the IC50 in [12] and in assay [2] were > 20 µM (inactive) and > 80 µM (inactive), respectively.
Turning to `Cc1c(CCOC(=O)CC23CC4CC(CC(C4)C2)C3)sc[n+]1Cc1ccccc1`, the half-maximal effective concentration (EC50) in assay [6] was 5.96 µM (active); in [13] it was > 160 µM (inactive).
As to `CCN(CC)c1ncnc2scc(C3COc4ccccc4O3)c12` (stereo not drawn), the half-maximal inhibitory concentration (IC50) in assay [14] is 10.3 µM (not active). In assay [6], the EC50 is 5.31 µM (active).
Take `CC1CCN(CCCOc2ccc(OCc3ccccc3)cc2)CC1`: the EC50 in assay [6] was 0.531 µM (active).
As to `COc1ccc(/C=C2\SC(=S)N(CCC(=O)Nc3cccc(O)c3)C2=O)cc1`, in [2], the IC50 was > 80 µM (inactive). In addition, the EC50 in assay [15] is 58.8 µM (active).
